≈ marks a conversion by molar mass, not a printed value. Read-outs that look alike come from different tables or passages of the source.
What was measured:
[1] = test system: lipoprotein lipase (LPL) gene; assay: LPL mRNA elevating action (RT-PCR quantification of LPL mRNA in C2Cl2 cells); format: cell-based, mouse; details: Mus musculus, 24 h, compound 10 μM, ratio relative to the amount of LPL mRNA in cells with DMSO only, read-out: Rate of increase in LPL mRNA
Method in brief: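 Read-out is LPL mRNA relative to vehicle (DMSO = 1), measured by reverse transcription and 20-cycle real-time PCR. Cells were the mouse striated-muscle line C2Cl2, treated 24 h with 10 μM compound in DMEM containing 10% FBS.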

[2] = Solubility in gastric juice or intestinal juice model fluid (precipitation method using DMSO); format: physicochemical; details: room temperature
Method in brief: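 Dissolved amount (μg/mL) quantified by UV of filtrate versus pre-made calibration curves. Precipitation approach: DMSO solutions spiked into pH 1.2 (JP 1st fluid) or pH 6.8 (JP 2nd fluid) medium, shaken at room temperature for 24 h before insolubles were filtered off.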

[3] = pH 1.2, simulated gastric fluid, kinetic from dmso stock, 1st fluid for Disintegration Test of Japanese Pharmacopoeia (pH: 1.2), read-out: Solubility (μg/mL) 1st fluid
[4] = pH 6.8, kinetic from dmso stock, 2nd fluid for Disintegration Test of Japanese Pharmacopoeia (pH: 6.8), read-out: Solubility (μg/mL) 2nd fluid

COc1cc(-c2[nH]c(C3CCC(F)(F)CC3)nc2Br)ccc1OCc1ccc(C(F)(F)F)cn1 [Example 198]
melting point: 158 to 165 °C | fold induction at 10 µM [1]: 6.36 | solubility at 24 h [2, 3]: > 109 µg/mL | solubility at 24 h [2, 4]: 17.4 µg/mL (≈ 31.8 µM)

COc1c(OCc2ccc(C(F)(F)F)nc2)ccc(-c2[nH]c(C3CCC(F)(F)CC3)nc2Br)c1OC [Example 199]
melting point: 162 to 165 °C | fold induction at 10 µM [1]: 5.05 | solubility at 24 h [2, 3]: > 115 µg/mL | solubility at 24 h [2, 4]: < 10.2 µg/mL

COc1c(OCc2ccc(C(F)(F)F)nc2)ccc(-c2[nH]c(C3CCC(F)(F)CC3)nc2Cl)c1OC [Example 200]
melting point: 148 to 150 °C | fold induction at 10 µM [1]: 4.73 | solubility at 24 h [2, 3]: 98.4 µg/mL (≈ 185 µM) | solubility at 24 h [2, 4]: 2.4 µg/mL (≈ 4.51 µM)

COc1cc(-c2[nH]c(C3C4CC5CC(C4)CC3C5)nc2Cl)ccc1OCc1ccc(C(F)(F)F)cn1 (stereo not shown) [Example 201]
melting point: 238 to 240 °C (dec.) | fold induction at 10 µM [1]: 2.45 | solubility at 24 h [2, 3]: 90 µg/mL (≈ 174 µM) | solubility at 24 h [2, 4]: 2.6 µg/mL (≈ 5.02 µM)

COc1cc(OCc2ccc(C(F)(F)F)nc2)c(C)cc1-c1[nH]c(-c2ccc(F)nc2)nc1Cl [Example 202]
melting point: 213 to 215 °C (dec.) | fold induction at 10 µM [1]: 3.15 | solubility at 24 h [2, 3]: 8.8 µg/mL (≈ 17.9 µM) | solubility at 24 h [2, 4]: < 1.8 µg/mL

COc1cc(-c2[nH]c(C3CCC(F)(F)CC3)nc2Cl)ccc1OCc1ccc(C(F)(F)F)nc1 [Example 203]
melting point: 164 to 167 °C | fold induction at 10 µM [1]: 5.47 | solubility at 24 h [2, 3]: 63.8 µg/mL (≈ 127 µM) | solubility at 24 h [2, 4]: < 1.8 µg/mL

COc1cc(OCc2ccc(C(F)(F)F)nc2)ccc1-c1[nH]c(C2CCC(F)(F)CC2)nc1Cl [Example 204]
melting point: 122 to 125 °C | fold induction at 10 µM [1]: 5.07 | solubility at 24 h [2, 3]: > 100 µg/mL | solubility at 24 h [2, 4]: < 8.9 µg/mL

COc1c(OCc2ccc(C(F)(F)F)cn2)ccc(-c2[nH]c(C3CCC(F)(F)CC3)nc2Cl)c1OC [Example 205]
melting point: 175 to 177 °C | fold induction at 10 µM [1]: 5.41 | solubility at 24 h [2, 3]: > 106 µg/mL | solubility at 24 h [2, 4]: < 9.5 µg/mL

COc1cc(OCc2ncc(C)cc2C)ccc1-c1nc(-c2ccc(F)nc2)[nH]c1Cl [Example 206]
melting point: 109 to 124 °C | fold induction at 10 µM [1]: 2.75 | solubility at 24 h [2, 3]: > 88 µg/mL | solubility at 24 h [2, 4]: 7 µg/mL (≈ 15.9 µM)

COc1cc(OC(C)c2ccc(C(F)(F)F)cn2)ccc1-c1nc(-c2ccc(F)nc2)[nH]c1Cl (stereo not shown) [Example 207]
melting point: 166 to 169 °C | fold induction at 10 µM [1]: 2.5 | Solubility (μg/mL) 1st fluid ([2]; 1st fluid for Disintegration Test of Japanese Pharmacopoeia (pH: 1.2), 24 hours): 83.4 µg/mL (≈ 169 µM) | solubility at 24 h [2, 4]: 0.4 µg/mL (≈ 0.812 µM)

COc1cc(OCc2ccc(C(F)(F)F)cn2)ccc1-c1[nH]c(-c2ccc(Cl)nc2)nc1I [Example 208]
melting point: 204 to 208 °C (dec.) | fold induction at 10 µM [1]: 4.72 | solubility at 24 h [2, 3]: 24.9 µg/mL (≈ 42.4 µM) | solubility at 24 h [2, 4]: < 0.4 µg/mL

COc1cc(-c2[nH]c(C3CCC(F)(F)CC3)nc2Cl)ccc1OCc1ccc(C(F)(F)F)cn1 [Example 209]
melting point: 175 to 177 °C | fold induction at 10 µM [1]: 5.34 | solubility at 24 h [2, 3]: 99.4 µg/mL (≈ 198 µM) | solubility at 24 h [2, 4]: < 0.4 µg/mL

COc1cc(OCc2ccc(C(F)(F)F)cn2)ccc1-c1[nH]c(C2CCC(F)(F)CC2)nc1Cl [Example 210]
melting point: 147 to 149 °C | fold induction at 10 µM [1]: 5.69 | solubility at 24 h [2, 3]: 95.6 µg/mL (≈ 190 µM) | solubility at 24 h [2, 4]: 1.5 µg/mL (≈ 2.99 µM)

COc1cc(OCc2coc(C)n2)ccc1-c1nc(-c2ccc(Cl)nc2)[nH]c1Cl [Example 211]
melting point: 136 to 155 °C | fold induction at 10 µM [1]: 2.55 | solubility at 24 h [2, 3]: 84.7 µg/mL (≈ 196 µM) | solubility at 24 h [2, 4]: 2.2 µg/mL (≈ 5.1 µM)

COc1cc(-c2nc(-c3ccc(F)nc3)[nH]c2Cl)ccc1OCc1ncccc1F [Example 212]
melting point: 161 to 163 °C | fold induction at 10 µM [1]: 2.22 | solubility at 24 h [2, 3]: 76.9 µg/mL (≈ 179 µM) | solubility at 24 h [2, 4]: 0.5 µg/mL (≈ 1.17 µM)

COc1cc(OCn2cccn2)ccc1-c1nc(-c2ccc(Cl)nc2)[nH]c1Cl [Example 213]
melting point: 166 to 169 °C | fold induction at 10 µM [1]: 2.04 | solubility at 24 h [2, 3]: 79.7 µg/mL (≈ 191 µM) | solubility at 24 h [2, 4]: 2.1 µg/mL (≈ 5.04 µM)

COc1cc(OCc2ncccc2C(F)(F)F)ccc1-c1nc(-c2ccc(F)nc2)[nH]c1Cl [Example 214]
melting point: 143 to 146 °C | fold induction at 10 µM [1]: 3.66 | solubility at 24 h [2, 3]: > 96 µg/mL | solubility at 24 h [2, 4]: 7.1 µg/mL (≈ 14.8 µM)

COc1cc(OCc2cnc(C)cn2)ccc1-c1nc(-c2ccc(F)nc2)[nH]c1Cl [Example 216]
melting point: 208 to 210 °C (dec.) | fold induction at 10 µM [1]: 2.62 | solubility at 24 h [2, 3]: 84.3 µg/mL (≈ 198 µM) | solubility at 24 h [2, 4]: 1.8 µg/mL (≈ 4.23 µM)

COCCOc1cc(OCc2ccc(C(F)(F)F)cn2)ccc1-c1nc(-c2ccc(Cl)nc2)[nH]c1Cl [Example 218]
melting point: 170 to 172 °C | fold induction at 10 µM [1]: 1.21 | solubility at 24 h [2, 3]: 0.4 µg/mL (≈ 0.742 µM) | solubility at 24 h [2, 4]: < 9.6 µg/mL

— patent publication US10570117B2, “Phenylimidazole compound” (Otsuka Pharmaceutical Factory, Inc., priority 2015, dated 2020)
